The values below are quoted from earlier work in patent publication US20040038429A1, “Method of searching for novel lead compound” (priority 2000, published 2004).

Structures are written as SMILES.

For the first series, the target named is 5-HT4 (Homo sapiens, UniProt Q13639).
Sequence of 5-HT4 (Q13639 whole entry, species assumed): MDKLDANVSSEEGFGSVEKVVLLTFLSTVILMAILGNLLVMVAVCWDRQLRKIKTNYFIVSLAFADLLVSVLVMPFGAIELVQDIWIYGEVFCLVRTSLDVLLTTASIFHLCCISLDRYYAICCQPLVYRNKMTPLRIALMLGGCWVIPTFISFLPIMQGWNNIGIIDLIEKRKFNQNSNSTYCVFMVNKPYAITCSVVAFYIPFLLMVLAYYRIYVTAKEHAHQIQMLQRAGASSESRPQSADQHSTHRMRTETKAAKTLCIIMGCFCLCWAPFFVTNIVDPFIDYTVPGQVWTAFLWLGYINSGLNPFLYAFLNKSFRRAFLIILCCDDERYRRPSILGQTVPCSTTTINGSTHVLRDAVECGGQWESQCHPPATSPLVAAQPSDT
Details: not given
Take `COc1cc(N)c(Cl)cc1C(=O)CCC1CCN(CCNS(C)(=O)=O)CC1`: the Known bioactivity was 5-HT4 Partial agonist.

For another series, the target named is T1, Trypsin (Bos taurus, UniProt P00760).
T1 construct: gene PRSS1
T1 sequence (P00760 24-246): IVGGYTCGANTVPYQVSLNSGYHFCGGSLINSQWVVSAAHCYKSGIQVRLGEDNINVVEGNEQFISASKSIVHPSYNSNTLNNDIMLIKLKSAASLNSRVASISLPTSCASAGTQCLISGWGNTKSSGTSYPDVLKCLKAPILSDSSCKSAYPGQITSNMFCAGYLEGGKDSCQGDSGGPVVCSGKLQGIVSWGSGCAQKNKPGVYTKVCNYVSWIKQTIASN
Details: not given
As to `Cc1ccc(S(=O)(=O)N[C@@H](CCCCN)C(=O)CCl)cc1.Cl`, the Known bioactivity result is on record as “Trypsin inhibitor”.

Take `Cc1ccc(S(=O)(=O)N[C@@H](CCCCN)C(=O)CCl)cc1`: the Known bioactivity result is given as “Trypsin inhibitor”.

Another series addresses Thrombin (Homo sapiens, UniProt P00734).
Details: not given
Regarding `CC(=O)O.N=C(N)c1ccc(CC(NC(=O)CNS(=O)(=O)c2ccc3ccccc3c2)C(=O)N2CCCCC2)cc1` (stereo not shown), the Known bioactivity result is given as “Thrombin inhibitor”. For `N=C(N)c1ccc(CC(NC(=O)CNS(=O)(=O)c2ccc3ccccc3c2)C(=O)N2CCCCC2)cc1` (stereo not shown) [drawing 16], the Known bioactivity entry is on record as “Thrombin inhibitor”. In the case of `N=C(N)c1ccc(CC(NC(=O)CNS(=O)(=O)c2ccc3ccccc3c2)C(=O)N2CCCCC2)cc1` (stereo not shown) [drawing 31], the Known bioactivity result was “Thrombin inhibitor”.

On to `N=C(N)c1ccc(CC(NC(=O)CNS(=O)(=O)c2ccc3ccccc3c2)C(=O)N2CCCCC2)cc1` (stereo not shown) [drawing 33], for which the Known bioactivity result is on record as “Thrombin inhibitor”.

Staying with this series, now noted: thrombin.
Regarding `COC(=O)[C@H](CCCCN)NS(=O)(=O)c1ccc(C)cc1.Cl`, the Known bioactivity entry was “Thrombin substrate”. Take `COC(=O)[C@H](CCCCN)NS(=O)(=O)c1ccc(C)cc1`: the Known bioactivity result is recorded as “Thrombin substrate”. For `Cc1ccc(S(=O)(=O)NC(Cc2ccc(C(=N)N)cc2)C(=O)N2CCCCC2)cc1` (racemic) [4-TAPAP, Nα-(4-toluene-sulfonyl)-DL-p-amidinophenylalanyl-piperidine, reference compound], the Known bioactivity result is listed as “thrombin inhibitors”.

For the compound `C[C@@H]1CCN(C(=O)[C@H](CCCNC(=N)N)NS(=O)(=O)c2cccc3c2NC[C@H](C)C3)[C@@H](C(=O)O)C1` [MQPA, (2R,4R)-4-methyl-1-[Nα-(3-methyl-1,2,3,4-tetrahydro-8-quinolinesulfonyl)-L-arginyl]-2-piperidinecarboxylic acid, reference compound], the Known bioactivity entry is recorded as “thrombin inhibitors”.

`CCC1CCCN(C(=O)[C@H](CCCNC(=N)N)NS(=O)(=O)c2cccc3c(N(C)C)cccc23)C1` (stereo partly shown) [drawing 26]: the Known bioactivity entry is given as “Thrombin inhibitor”. On to `CCC1CCCN(C(=O)[C@H](CCCNC(=N)N)NS(=O)(=O)c2cccc3c(N(C)C)cccc23)C1` (stereo partly shown) [drawing 32], for which the Known bioactivity entry is reported as “Thrombin inhibitor”.
